Consider eight compounds from ChEMBL document CHEMBL1201862, “PubChem BioAssay data set” (2004).

The nature of assay [1]: off-target signal loss in HeLa-CEM21 co-culture – HeLa F-luc CTL cells, cherry-picked, counter-screen for HIV-1 Env fusion inhibitor project, dose response (AID 652040).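 Note: potency for signal decrease marking cytotoxic or nonspecific inhibition.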 It is filed as functional, cell-based. On the technique in general: The purpose of a counterscreen is to sort out artefacts and off-target activity.
A further assay addresses T1, Caspase-6 (Homo sapiens, UniProt P55212).
T1 sequence (P55212 whole entry): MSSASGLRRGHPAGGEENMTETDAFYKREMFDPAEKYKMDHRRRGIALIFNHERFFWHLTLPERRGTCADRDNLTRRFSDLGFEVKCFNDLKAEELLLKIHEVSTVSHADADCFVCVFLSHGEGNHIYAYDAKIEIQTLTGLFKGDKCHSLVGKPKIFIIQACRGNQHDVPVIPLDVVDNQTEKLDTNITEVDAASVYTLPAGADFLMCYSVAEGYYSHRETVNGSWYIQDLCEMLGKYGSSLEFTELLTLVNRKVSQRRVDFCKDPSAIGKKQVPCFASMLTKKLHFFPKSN
In words: inhibition of CASP6 peptide cleavage – biochemical, VEID-R110 fluorescence, cherry-pick, dose response (AID 720632).

Assay [2] is described as follows: HIV-1 AD8 envelope cell-cell fusion blockers – cherry-pick, dose response (AID 652062).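 Note: luciferase signal from cell-cell fusion driven by HIV-1 clade B AD8 Env; potency is for inhibitors of fusion seen as a drop in luminescence.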 It is filed as functional, cell-based.
Assay [3] can be described thus: loss of viability in HepG2 cells – cell-based, CellTiter-Glo, cherry-picked, cytotoxicity control for Shn3 inhibitor project, dose response (AID 624134). Type of assay: functional.
A short description of assay [4]: viability loss in CEM21 cells – cell-based, CellTiter-Glo luminescence, cherry-picked, cytotoxicity control for viral fusion inhibitor project, dose response (AID 652042).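 Note: potency for signal decrease meaning cytotoxicity.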 It is filed as functional.
The nature of assay [5]: non-specific 3'UTR reporter inhibition in Clone20-Shn3RL – cell-based, Renilla luciferase, cherry-picked, counter-screen for Shn3 inhibitor project, dose response (AID 624133). Type of assay: functional.
The target of a further assay is Caspase-7 (Homo sapiens, UniProt P55210). Kind of assay: caspase-7 enzyme inhibition, selectivity check – biochemical, DEVD-R110 fluorescence, cherry-pick, selectivity assay for caspase-6 inhibitor project, dose response (AID 743295). It is filed as functional.
Chain of Caspase-7 (P55210 24-198 limits assumed): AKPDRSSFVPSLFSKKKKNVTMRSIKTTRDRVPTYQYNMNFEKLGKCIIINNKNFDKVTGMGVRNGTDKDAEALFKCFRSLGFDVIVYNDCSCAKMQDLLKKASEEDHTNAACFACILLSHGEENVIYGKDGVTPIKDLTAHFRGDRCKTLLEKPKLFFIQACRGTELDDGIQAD
Chain of Caspase-7 (P55210 207-303 limits assumed): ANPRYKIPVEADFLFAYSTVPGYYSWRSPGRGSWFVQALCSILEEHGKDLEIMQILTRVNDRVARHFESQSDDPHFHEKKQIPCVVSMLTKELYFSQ
For the next assay, the target named is Caspase-8 (Homo sapiens, UniProt Q14790). Kind of assay: inhibitors of purified CASP8 protease – biochemical, Z-IETD-R110 fluorescence, cherry-picked samples, selectivity assay for caspase-6 inhibitor project, dose response (AID 743294).
Chain of Caspase-8 (Q14790 217-374 limits assumed): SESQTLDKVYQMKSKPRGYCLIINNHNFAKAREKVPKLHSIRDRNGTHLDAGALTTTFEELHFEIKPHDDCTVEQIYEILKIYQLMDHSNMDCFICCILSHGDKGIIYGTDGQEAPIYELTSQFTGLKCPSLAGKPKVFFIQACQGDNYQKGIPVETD
Chain of Caspase-8 (Q14790 385-479 limits assumed): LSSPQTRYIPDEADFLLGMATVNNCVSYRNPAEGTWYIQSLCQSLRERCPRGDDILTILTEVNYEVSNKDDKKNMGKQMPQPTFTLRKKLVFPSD
Assay [6] is described as follows: blockers of HIV-1 envelope-mediated cell-cell fusion – cherry-pick, dose response (AID 652057). It is filed as functional, cell-based.
Assay [7] in a line: reduction of Shn3 3'UTR-driven luciferase in osteoblasts – cell-based, Clone20 osteoblasts, firefly luciferase, cherry-picked, dose response (AID 624132).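 Note: firefly luciferase luminescence from reporter carrying the Shn3 3'UTR in osteoblasts.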 It is filed as functional.
The next assay concerns the target Protein Wnt-3a (Mus musculus, UniProt P27467). Kind of assay: SAR analysis of small molecule antagonists of Gli-SUFU in a Wnt3a luminescent reporter assay. It is filed as functional. Background: A reporter such as luciferase makes a cellular process visible.
The target in assay [8] is T2, Tyrosine-protein phosphatase non-receptor type 22 (Homo sapiens, UniProt Q9Y2R2).
T2 sequence (Q9Y2R2 whole entry): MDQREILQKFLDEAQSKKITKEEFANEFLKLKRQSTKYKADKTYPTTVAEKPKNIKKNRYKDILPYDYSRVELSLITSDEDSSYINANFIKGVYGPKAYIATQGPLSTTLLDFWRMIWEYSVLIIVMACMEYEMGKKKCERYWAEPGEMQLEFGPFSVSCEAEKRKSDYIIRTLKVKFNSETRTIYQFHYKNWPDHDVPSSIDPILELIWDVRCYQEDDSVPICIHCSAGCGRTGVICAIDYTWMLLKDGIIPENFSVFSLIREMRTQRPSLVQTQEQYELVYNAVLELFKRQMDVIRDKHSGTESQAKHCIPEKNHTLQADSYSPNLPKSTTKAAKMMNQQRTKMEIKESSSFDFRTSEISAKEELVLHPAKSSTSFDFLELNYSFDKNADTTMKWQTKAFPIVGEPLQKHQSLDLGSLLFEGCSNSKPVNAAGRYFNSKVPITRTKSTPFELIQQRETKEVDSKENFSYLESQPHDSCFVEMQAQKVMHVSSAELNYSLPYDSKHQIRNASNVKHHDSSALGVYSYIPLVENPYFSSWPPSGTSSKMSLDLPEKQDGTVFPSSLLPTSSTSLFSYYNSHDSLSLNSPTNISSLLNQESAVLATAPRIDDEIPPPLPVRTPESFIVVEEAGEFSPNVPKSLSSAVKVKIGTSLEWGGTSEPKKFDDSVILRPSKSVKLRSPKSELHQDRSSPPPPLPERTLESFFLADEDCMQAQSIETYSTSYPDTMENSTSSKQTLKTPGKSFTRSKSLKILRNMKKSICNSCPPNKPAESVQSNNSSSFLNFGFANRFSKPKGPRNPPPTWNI
Kind of assay: lymphoid phosphatase LYP inhibitors – biochemical, selectivity assay for STEP inhibitor project, dose response (AID 624241). It is filed as functional.

The target in assay [9] is Tyrosine-protein phosphatase non-receptor type 5 (Homo sapiens, UniProt P54829). Kind of assay: PTPN5 enzyme inhibition – biochemical, fluorescence intensity, uHTS hits, confirmation (AID 602372). Type of assay: functional. Conditions: read-out: IC50_Mean.
Chain of Tyrosine-protein phosphatase non-receptor type 5 (P54829 whole entry): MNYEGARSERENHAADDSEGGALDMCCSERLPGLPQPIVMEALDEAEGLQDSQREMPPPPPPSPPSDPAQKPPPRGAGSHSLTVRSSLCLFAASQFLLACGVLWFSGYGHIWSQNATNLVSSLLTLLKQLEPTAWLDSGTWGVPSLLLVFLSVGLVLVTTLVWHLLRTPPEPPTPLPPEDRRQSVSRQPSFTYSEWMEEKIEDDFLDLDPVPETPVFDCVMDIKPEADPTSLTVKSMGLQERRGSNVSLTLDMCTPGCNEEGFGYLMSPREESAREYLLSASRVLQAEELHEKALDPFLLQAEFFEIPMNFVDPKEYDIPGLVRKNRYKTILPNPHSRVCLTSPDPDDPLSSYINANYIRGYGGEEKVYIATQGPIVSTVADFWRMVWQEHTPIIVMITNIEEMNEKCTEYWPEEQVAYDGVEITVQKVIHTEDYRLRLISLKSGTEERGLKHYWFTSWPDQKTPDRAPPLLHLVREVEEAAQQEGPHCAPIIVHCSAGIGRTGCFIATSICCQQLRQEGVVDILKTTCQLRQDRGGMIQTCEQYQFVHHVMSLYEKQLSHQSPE
The target of assay [10] is Dual specificity protein phosphatase 3 (Homo sapiens, UniProt P51452). In words: VHR phosphatase inhibition, dose response, selectivity assay for STEP inhibitor project, biochemical (AID 602374). It is filed as functional. Conditions: read-out: IC50_Mean.
Chain of Dual specificity protein phosphatase 3 (P51452 whole entry): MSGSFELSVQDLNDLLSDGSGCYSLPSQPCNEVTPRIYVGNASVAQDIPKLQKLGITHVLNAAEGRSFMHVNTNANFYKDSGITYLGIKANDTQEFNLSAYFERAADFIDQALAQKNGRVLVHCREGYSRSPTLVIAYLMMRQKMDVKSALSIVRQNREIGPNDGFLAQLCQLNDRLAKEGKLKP
Assay [11] deals with Tyrosine-protein phosphatase non-receptor type 11 (Homo sapiens, UniProt Q06124). Kind of assay: PTPN11 enzyme inhibitors – biochemical, selectivity assay for STEP inhibitor project, dose response (AID 602367). To be noted: read-out: IC50_Mean. It is filed as functional.
Chain of Tyrosine-protein phosphatase non-receptor type 11 (Q06124 whole entry): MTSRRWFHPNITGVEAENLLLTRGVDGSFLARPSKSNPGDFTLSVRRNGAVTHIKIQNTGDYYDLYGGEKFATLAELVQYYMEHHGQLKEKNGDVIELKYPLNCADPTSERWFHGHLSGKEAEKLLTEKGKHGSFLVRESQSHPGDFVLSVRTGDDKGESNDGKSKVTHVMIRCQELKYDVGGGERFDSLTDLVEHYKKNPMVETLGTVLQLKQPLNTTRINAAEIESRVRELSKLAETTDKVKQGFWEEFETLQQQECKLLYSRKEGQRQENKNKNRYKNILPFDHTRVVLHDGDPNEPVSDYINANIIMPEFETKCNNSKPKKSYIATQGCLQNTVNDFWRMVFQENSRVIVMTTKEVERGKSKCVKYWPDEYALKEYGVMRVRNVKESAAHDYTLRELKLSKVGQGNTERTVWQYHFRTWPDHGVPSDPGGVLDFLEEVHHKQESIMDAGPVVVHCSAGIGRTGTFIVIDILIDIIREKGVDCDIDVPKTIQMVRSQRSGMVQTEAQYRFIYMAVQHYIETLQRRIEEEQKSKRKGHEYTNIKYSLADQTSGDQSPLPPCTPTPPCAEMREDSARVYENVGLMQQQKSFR
The target of assay [12] is Histone-lysine N-methyltransferase NSD2 (Homo sapiens, UniProt O96028). Type of assay: biochemical.
Chain of Histone-lysine N-methyltransferase NSD2 (O96028 whole entry): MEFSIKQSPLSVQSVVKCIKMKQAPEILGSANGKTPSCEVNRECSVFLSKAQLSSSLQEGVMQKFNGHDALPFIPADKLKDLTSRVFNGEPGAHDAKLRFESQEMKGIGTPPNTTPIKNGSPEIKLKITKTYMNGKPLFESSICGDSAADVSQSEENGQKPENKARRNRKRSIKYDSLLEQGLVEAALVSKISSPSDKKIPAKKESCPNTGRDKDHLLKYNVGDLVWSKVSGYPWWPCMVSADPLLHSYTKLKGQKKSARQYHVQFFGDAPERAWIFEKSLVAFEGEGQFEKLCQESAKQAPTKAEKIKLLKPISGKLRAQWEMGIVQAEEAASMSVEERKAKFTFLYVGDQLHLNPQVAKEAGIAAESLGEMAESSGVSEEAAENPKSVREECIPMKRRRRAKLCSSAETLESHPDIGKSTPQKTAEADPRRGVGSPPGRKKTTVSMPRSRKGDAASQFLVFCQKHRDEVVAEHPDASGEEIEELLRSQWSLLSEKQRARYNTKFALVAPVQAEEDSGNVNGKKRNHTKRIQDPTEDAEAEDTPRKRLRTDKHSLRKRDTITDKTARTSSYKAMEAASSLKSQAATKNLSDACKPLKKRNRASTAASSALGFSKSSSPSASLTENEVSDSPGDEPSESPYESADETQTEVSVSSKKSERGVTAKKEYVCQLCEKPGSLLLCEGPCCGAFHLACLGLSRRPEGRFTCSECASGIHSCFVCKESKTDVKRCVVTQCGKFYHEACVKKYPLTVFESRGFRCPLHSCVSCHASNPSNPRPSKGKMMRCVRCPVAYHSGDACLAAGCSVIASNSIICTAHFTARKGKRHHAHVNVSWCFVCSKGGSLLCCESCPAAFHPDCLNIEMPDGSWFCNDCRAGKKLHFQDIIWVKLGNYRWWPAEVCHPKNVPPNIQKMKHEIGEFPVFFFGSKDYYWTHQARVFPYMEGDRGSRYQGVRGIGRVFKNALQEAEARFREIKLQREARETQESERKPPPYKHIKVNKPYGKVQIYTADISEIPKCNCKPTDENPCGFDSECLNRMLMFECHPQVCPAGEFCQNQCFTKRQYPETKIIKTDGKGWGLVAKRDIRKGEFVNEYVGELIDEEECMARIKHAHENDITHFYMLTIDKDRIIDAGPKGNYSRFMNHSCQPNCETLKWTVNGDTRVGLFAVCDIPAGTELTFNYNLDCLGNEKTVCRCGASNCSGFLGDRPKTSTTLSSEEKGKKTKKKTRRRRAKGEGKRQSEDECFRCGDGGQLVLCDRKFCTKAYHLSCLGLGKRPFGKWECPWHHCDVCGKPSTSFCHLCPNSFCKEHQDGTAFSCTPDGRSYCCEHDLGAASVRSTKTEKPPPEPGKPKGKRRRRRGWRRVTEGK
A short description of assay [13]: NIH3T3 cell viability loss – ATP luminescence, mouse fibroblasts, counter-screen, dose response (AID 2010).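 Note: cells exposed to compound for about 90 hours before reading.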 It is filed as functional, cell-based.
A short description of assay [14]: viability loss in CEM21 cells – cell-based, plate reader, dry powder, cytotoxicity control, dose response (AID 687026). It is filed as functional.
Assay [15] in a line: Trypanosoma cruzi growth suppression in host cells – NIH3T3 host cells, beta-gal luminescence, confirmation (AID 2044).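 Note: intracellular parasites grown in NIH/3T3 mouse fibroblasts as host cells; luminescent beta-galactosidase reporter signal from transgenic T. cruzi replicating inside host cells; inhibitors lower the luminescence signal.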 It is filed as functional, cell-based.
For another assay, the target named is T3, Estrogen receptor (Homo sapiens, UniProt P03372).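 Note: potency for inhibiting coactivator peptide recruitment to the receptor.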
T3 sequence (P03372 whole entry): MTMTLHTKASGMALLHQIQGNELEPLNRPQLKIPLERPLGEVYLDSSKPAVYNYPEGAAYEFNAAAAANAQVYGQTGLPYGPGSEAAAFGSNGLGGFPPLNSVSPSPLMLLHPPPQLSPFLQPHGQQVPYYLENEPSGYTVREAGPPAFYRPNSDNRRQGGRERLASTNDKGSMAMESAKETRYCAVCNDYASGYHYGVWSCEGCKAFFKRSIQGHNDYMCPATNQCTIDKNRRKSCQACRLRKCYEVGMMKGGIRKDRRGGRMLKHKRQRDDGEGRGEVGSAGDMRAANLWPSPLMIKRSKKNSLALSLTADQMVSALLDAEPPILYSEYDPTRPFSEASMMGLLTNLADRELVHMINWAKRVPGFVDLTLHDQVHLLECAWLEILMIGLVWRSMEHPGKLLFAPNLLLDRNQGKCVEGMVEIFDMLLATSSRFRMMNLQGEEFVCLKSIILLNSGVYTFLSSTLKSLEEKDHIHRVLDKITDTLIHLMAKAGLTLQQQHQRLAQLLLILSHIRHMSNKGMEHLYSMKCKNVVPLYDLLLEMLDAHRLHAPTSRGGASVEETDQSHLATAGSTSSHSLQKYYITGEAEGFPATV

A short description of assay [16]: blockers of HIV-1 ZM109 envelope-driven cell-cell fusion – HeLa effector, CEM target cells, luciferase, cherry-pick, dose response (AID 652058).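 Note: luciferase signal from HIV-1 Env mediated cell-cell fusion of effector and target cells.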 Type of assay: functional, cell-based.
A short description of assay [17]: reduced cellular PGC1a acetyl-lysine signal – cell-based, cherry-picked samples, dose response (AID 720514).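 Note: potency may reflect raised or lowered acetylation signal.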 Type of assay: functional.
Assay [18] concerns the target Eukaryotic translation initiation factor 4E (Mus musculus, UniProt P63073). In words: blockers of eIF4G binding by eIF4E – biochemical, TR-FRET, dose response (AID 855).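 Note: potency for disrupting eIF4E binding to eIF4GI seen as loss of FRET.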 Type of assay: functional. A general note: In TR-FRET formats the signal depends on donor and acceptor labels being close together.
Assay [19] in a line: CMV-driven luciferase expression suppression in HEK293 – cell-based, luminescence, dry powder, counter-screen for Pax8 inhibitor project, dose response (AID 743020). It is filed as functional.
Assay [20] in a line: viability of uninfected HEp-2 cells – cell-based, HTS, cytotoxicity control for RSV inhibitor project, dose response (AID 2410). It is filed as functional. To be noted: human respiratory syncytial virus.
The target in assay [21] is Tyrosyl-DNA phosphodiesterase 2 (Homo sapiens, UniProt O95551). In words: potency against TDP2 phosphodiesterase activity – biochemical, epi absorbance, IC50, dose response (AID 743297).
Chain of Tyrosyl-DNA phosphodiesterase 2 (O95551 whole entry): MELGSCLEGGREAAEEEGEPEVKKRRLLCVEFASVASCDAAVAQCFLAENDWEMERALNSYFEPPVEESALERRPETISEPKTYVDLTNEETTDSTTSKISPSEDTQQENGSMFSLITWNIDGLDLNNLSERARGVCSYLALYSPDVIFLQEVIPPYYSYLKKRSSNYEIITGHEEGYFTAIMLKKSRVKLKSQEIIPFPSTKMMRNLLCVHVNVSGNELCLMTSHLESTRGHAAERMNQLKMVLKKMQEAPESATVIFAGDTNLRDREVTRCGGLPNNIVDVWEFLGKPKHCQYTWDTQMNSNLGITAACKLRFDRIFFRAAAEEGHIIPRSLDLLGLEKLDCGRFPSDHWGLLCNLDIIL
Assay [22] concerns the target NAD-dependent protein deacylase sirtuin-5, mitochondrial (Homo sapiens, UniProt Q9NXA8). Kind of assay: sirtuin-5 deacylation blockers, concentration series – biochemical, fluorescence imaging, cherry-pick, set 5, dose response (AID 720591).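 Note: desuccinylation of succinyl peptide AMC substrate read as fluorescence after trypsin release; potency of inhibitors that lower fluorescence and may act on trypsin instead.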

Calls of active or inactive are those of the source. A value given as a limit tells only on which side of the number the result lay.

Chain of Eukaryotic translation initiation factor 4E (P63073 whole entry): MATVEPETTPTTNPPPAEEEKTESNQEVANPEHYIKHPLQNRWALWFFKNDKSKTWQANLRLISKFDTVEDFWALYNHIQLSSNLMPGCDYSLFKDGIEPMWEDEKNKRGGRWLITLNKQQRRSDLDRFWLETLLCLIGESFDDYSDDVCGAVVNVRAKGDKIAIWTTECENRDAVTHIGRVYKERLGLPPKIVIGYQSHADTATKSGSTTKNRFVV
Chain of Protein Wnt-3a (P27467 whole entry): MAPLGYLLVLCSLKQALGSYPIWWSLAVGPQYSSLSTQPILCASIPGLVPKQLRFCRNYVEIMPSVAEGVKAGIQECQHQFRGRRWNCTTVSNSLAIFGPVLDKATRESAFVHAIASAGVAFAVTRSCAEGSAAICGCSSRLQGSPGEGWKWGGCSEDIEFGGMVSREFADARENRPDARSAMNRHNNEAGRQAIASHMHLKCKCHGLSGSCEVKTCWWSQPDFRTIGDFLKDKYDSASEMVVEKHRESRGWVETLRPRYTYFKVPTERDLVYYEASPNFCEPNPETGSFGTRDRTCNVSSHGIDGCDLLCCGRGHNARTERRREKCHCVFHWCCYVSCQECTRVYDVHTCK
Chain of NAD-dependent protein deacylase sirtuin-5, mitochondrial (Q9NXA8 whole entry): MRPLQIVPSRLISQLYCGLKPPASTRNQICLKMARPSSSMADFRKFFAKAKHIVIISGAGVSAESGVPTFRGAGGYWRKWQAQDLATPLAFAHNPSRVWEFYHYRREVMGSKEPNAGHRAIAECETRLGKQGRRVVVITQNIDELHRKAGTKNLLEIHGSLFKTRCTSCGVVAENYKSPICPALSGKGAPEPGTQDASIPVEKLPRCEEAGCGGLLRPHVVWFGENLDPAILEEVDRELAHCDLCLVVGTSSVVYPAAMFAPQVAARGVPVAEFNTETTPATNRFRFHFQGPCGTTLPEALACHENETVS

In general, AC50 refers to the midpoint of the concentration-response curve, whichever way the signal moves. On to `Nc1cc2c(cc1Br)nc(O)c1ccccc12`, for which the AC50 is 22.9 µM (active) in assay [1]; 3.87 µM (active) on Caspase-6; 21.6 µM (active) in assay [2]; 45.8 µM (active) in assay [3]; 9.39 µM (active) in assay [4]; 22.9 µM (active) in assay [5]. For the same compound, the AC50 at Caspase-7 is 2.6 µM (active); at Caspase-8 it was 5.26 µM (active); in [6], 3.76 µM (active); in assay [7] it was 5.46 µM (active).

With `O=C(Nc1cc(N2CCCCC2)ncn1)c1cc2ccccc2s1`, the IC50 on Protein Wnt-3a is > 21.8 µM (inactive).

`CC(=O)c1ccc(S(=O)(=O)Nc2cccc(-n3cnnn3)c2)cc1`: the IC50 in assay [8] was 11.4 µM (active); in [9], 17.4 µM (active); in assay [10] it was 1.51 µM (active); in assay [11], 0.526 µM (active). In assay [12], the AC50 was 12.9 µM (active).

The EC50 is the concentration giving half of the maximal effect. `COc1ccc(-c2nn(C)c(=O)c3ccccc23)cc1NC(=O)Cn1nc(C)c2ccccc2c1=O`: the EC50 was > 60 µM (not active) in assay [13] and 1.46 µM (active) in assay [15]. Moreover, the AC50 in [14] was > 70 µM (inactive); in [6] it was 4.07 µM (active); in assay [16], 6.21 µM (active). For the same compound, the IC50 on Estrogen receptor was > 50 µM (not active).

For `COCCSc1ccccc1C(=O)Nc1cc(C)on1`, the AC50 in assay [17] is 1.06 µM (active). Also, the IC50 in assay [18] was > 64 µM (inactive).

In general, CC50 refers to the concentration that lowers cell viability or growth by half. Consider `Cc1nn(CCO)c2nc(-c3cccs3)cc(C(F)(F)F)c12`, for which, in assay [19], the AC50 is 26.3 µM (active). In addition, the CC50 in [20] is > 50 µM (active).

On to `Cc1cccc2cc(C=C3C(=O)NC(=O)NC3=O)c(O)nc12`, for which the IC50 in assay [21] was > 128 µM (inactive).

For the compound `Nc1nc(CSc2ccc(Cl)cc2)nc(N2CCCCC2)n1`, in [22], the AC50 was 26.5 µM (active).
